Series [1] in a line: Inhibition of Staphylococcus aureus DNA topoisomerase 4.
Series [2] can be described thus: Inhibition of Staphylococcus aureus DNA gyrase.
A short description of series [3]: Ratio of fAUC in fluoroquinolone-resistant Staphylococcus aureus infected mouse neutropenic thigh model to MIC for fluoroquinolone-resistant Staphylococcus aureus.
The test system of series [4] is Staphylococcus aureus. The experiment in a line: Antibacterial activity against fluoroquinolone-resistant Staphylococcus aureus infected in mouse neutropenic thigh model assessed as static dose required for bacterial stasis. It is filed as functional.
Series [5] in a line: Fraction unbound in mouse plasma. It is filed as ADME, cell-free.
Series [6] in a line: Half life in mouse at 10 mg/kg, iv. In kind it is ADME, organism-based. The note with it: in vivo.
Series [7] concerns Staphylococcus aureus. The experiment in a line: Antibacterial activity against Staphylococcus aureus. In kind it is functional.
Series [8] can be described thus: Volume of distribution at steady state in mouse at 10 mg/kg, iv. In kind it is ADME, organism-based. The settings on record: in vivo, read-out: Vdss.
Series [9] relates to Staphylococcus aureus. The experiment in a line: Antibacterial activity against Staphylococcus aureus containing DNA gyrase M121K mutations. It is filed as functional.
The nature of series [10]: Fraction unbound in human plasma. In kind it is ADME, cell-free.
The nature of series [11]: Half life in rat at 2 mg/kg, iv. The settings on record: in vivo. In kind it is ADME, organism-based.
The nature of series [12]: Clearance in mouse at 10 mg/kg, iv. It is filed as ADME, organism-based. The note with it: in vivo.
Series [13] deals with Streptococcus pyogenes. The experiment in a line: Antibacterial activity against Streptococcus pyogenes. In kind it is functional.
Series [14] can be described thus: Fraction unbound in rat plasma. In kind it is ADME, cell-free.
Series [15] deals with Staphylococcus aureus. The experiment in a line: Antibacterial activity against fluoroquinolone-resistant Staphylococcus aureus 1095. In kind it is functional.
Series [16] concerns the target Voltage-gated inwardly rectifying potassium channel KCNH2 (Homo sapiens, UniProt Q12809). The experiment in a line: Inhibition of human ERG.
In series [17] the test system is Staphylococcus aureus. The experiment in a line: Antibacterial activity against Staphylococcus aureus containing DNA gyrase D83N mutations. In kind it is functional.
For series [18], the system named is Staphylococcus aureus. The experiment in a line: Antibacterial activity against fluoroquinolone-sensitive Staphylococcus aureus 1146. It is filed as functional.

≈ marks a conversion by molar mass, not a printed value.

Sequence of Voltage-gated inwardly rectifying potassium channel KCNH2 (Q12809 whole entry): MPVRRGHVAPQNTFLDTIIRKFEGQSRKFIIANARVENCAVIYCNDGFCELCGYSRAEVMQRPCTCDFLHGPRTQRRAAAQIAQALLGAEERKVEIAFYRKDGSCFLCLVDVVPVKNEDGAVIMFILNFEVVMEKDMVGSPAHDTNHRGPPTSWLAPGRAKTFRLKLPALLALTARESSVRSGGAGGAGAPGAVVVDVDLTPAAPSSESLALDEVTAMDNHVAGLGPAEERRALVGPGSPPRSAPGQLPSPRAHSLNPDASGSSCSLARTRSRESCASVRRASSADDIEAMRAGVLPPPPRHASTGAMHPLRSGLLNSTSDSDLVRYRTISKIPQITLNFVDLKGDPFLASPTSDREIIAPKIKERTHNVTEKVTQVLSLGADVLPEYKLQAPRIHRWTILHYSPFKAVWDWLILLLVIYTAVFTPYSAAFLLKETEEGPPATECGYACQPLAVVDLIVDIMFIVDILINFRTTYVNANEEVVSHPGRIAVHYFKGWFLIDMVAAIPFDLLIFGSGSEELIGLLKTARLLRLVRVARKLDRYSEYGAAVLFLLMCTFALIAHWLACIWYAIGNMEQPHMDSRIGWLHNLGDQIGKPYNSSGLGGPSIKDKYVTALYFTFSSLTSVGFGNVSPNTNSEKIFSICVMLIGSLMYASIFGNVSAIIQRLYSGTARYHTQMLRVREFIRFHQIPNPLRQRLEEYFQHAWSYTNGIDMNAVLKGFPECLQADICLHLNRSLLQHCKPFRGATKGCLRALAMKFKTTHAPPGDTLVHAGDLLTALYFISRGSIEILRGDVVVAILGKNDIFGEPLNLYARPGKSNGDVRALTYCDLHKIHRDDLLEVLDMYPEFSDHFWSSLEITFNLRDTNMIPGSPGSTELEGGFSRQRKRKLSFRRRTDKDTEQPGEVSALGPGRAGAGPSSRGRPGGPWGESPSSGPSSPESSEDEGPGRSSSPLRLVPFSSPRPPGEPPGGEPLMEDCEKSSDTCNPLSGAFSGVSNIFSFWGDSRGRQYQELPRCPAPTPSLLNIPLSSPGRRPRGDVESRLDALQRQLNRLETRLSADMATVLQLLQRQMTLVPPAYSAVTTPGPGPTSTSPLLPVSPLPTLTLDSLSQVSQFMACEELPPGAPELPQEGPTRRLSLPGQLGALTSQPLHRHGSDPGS

As a reminder, the IC50 is the concentration that inhibits the measured activity by half. The low end stands for inhibition by little substance, the high end for a need for much substance. Take `COc1ccc2ncc(F)c([C@@H](O)CC[C@@H]3CCN(CCSc4cccs4)C[C@@H]3C(=O)O)c2c1`: the results for the concentration for half-maximal inhibition (IC50) in series [1] and in series [2] were 30.4 µM and 1.56 µM, respectively.
On the same counts, the results for `COc1ccc2nccc([C@@H](O)CC[C@@H]3CCN(CCSc4cccs4)C[C@@H]3C(=O)O)c2c1` are 84.6 µM and 2.42 µM.
Regarding `N#Cc1ccc2ccc(=O)n(CCN3CC[C@H](NCc4cc5c(cn4)OCCO5)[C@H](F)C3)c2c1`, the Ratio in [3] turned out to be 36.
The term fraction unbound denotes the share of the substance not bound to proteins or other matrix. As usually defined, the half-life is the time in which the quantity being followed falls by half. A word on the MIC90: it is the lowest concentration that inhibits either 90% of growth or 90% of the strains tested, depending on the study. Low readings indicate higher susceptibility, high ones lower susceptibility. By MIC is commonly meant the smallest concentration in the dilution series that meets the test's criterion for growth inhibition. As a reminder, the clearance is the volume of plasma or blood freed of the substance per unit of time. Lower therefore signals a low capacity for elimination. In the case of `COc1ccc2nccc([C@@H](O)CC[C@@H]3CCN(C4CC(c5ccccc5)C4)C[C@@H]3C(=O)O)c2c1` (stereo partly drawn), the Activity in [4] was 123.1 mg/kg/day. The fraction unbound in [5] was 0.129 to 0.246; in series [10], 0.079 to 0.155; in series [14] it was 0.296 to 0.437. Further, the half-life in series [6] was 20.4 min; in series [11], 19.8 min. Besides, the half-maximal inhibitory concentration (IC50) came out at 32.1 µM in series [1] and 1.19 µM in [2]. Besides, the results for the MIC90 in series [7] and in series [13] were 0.25 to 1 µg/mL (≈ 0.527 to 2.11 µM) and 1 to 2 µg/mL (≈ 2.11 to 4.21 µM), respectively. In series [8], the Vd was 1.06 L/kg. The MIC in [9] was at least 64 µg/mL. The clearance in series [12] was determined as 36 mL/min/kg.
As for `COc1ccc2nccc([C@@H](O)CC[C@@H]3CCN(C4CC(c5c(F)cccc5F)C4)C[C@@H]3C(=O)O)c2c1` (stereo partly drawn), the values for the IC50 in [1] and in series [2] were 100 to 120 µM and 2.93 µM, respectively.
The matching figures for `COc1ccc2nccc([C@@H](O)CC[C@@H]3CCN(C4CC(c5cc(F)ccc5F)C4)C[C@@H]3C(=O)O)c2c1` (stereo partly drawn): 9.62 µM and 3 µM.
`O=c1ccc2ncc(F)c3c2n1C[C@@]3(O)CN1CCC(NCc2cc3c(cn2)OCCO3)CC1`: the figures for the IC50 in series [1], in series [16] and in [2] were 4.96 µM, above 300 µM and 0.448 µM, respectively. Moreover, the values for the MIC90 in [7] and in [13] were 0.5 µg/mL (≈ 1.07 µM) and 0.125 µg/mL (≈ 0.267 µM), respectively. For the same molecule, the MIC was 8 µg/mL (≈ 17.1 µM) in series [9], 0.31 µg/mL (≈ 0.663 µM) in series [15], 4 µg/mL (≈ 8.56 µM) in series [17] and 0.125 µg/mL (≈ 0.267 µM) in series [18].
With `COc1ccc2ncc(F)c([C@@H](O)CC[C@@H]3CCN(C4CC(c5ccccn5)C4)C[C@@H]3C(=O)O)c2c1` (stereo partly drawn), the half-maximal inhibitory concentration (IC50) is 50 µM in series [1] and 3.13 µM in series [2]. For the same molecule, the MIC in series [15] was 16 µg/mL (≈ 32.4 µM); in series [17] it was above 64 µg/mL; in [18], 1 µg/mL (≈ 2.03 µM).
`COc1ccc2ncc(F)c([C@@H](O)CC[C@@H]3CCN(C4CC(c5ccccc5F)C4)C[C@@H]3C(=O)O)c2c1` (stereo partly drawn): the half-inhibitory concentration (IC50) stood at 19 µM in series [1] and 0.78 µM in series [2]. Further, the MIC90 in series [7] stood at 0.125 µg/mL (≈ 0.245 µM); in series [13] it was 0.5 µg/mL (≈ 0.979 µM). The MIC in series [9] was 16 µg/mL (≈ 31.3 µM); in [15], 0.125 µg/mL (≈ 0.245 µM); in [17] it was 16 µg/mL (≈ 31.3 µM); in [18], at most 0.0625 µg/mL.
For `COc1ccc2ncc(F)c([C@@H](O)CC[C@@H]3CCN(C4CC(c5c(F)cccc5F)C4)C[C@@H]3C(=O)O)c2c1` (stereo partly drawn), the IC50 in series [1] stood at 18.3 µM; in [16] it was 45.3 µM; in [2], 4.61 µM. Moreover, the MIC90 in series [7] was found to be 0.125 µg/mL (≈ 0.236 µM); in series [13], 0.5 µg/mL (≈ 0.946 µM). The MIC in series [9] was 2.8 µg/mL (≈ 5.3 µM); in series [15] it was 0.079 µg/mL (≈ 0.149 µM); in [17] it was 3.2 µg/mL (≈ 6.05 µM); in series [18], at most 0.063 µg/mL.
For `COc1ccc2ncc(F)c([C@@H](O)CC[C@@H]3CCN(C4CC(c5cccs5)C4)C[C@@H]3C(=O)O)c2c1` (stereo partly drawn), the figures for the IC50 in [1] and in [2] were 9.4 µM and 0.78 µM, respectively. Also, the MIC90 amounted to 0.125 µg/mL (≈ 0.251 µM) in series [7] and 0.5 µg/mL (≈ 1 µM) in series [13]. The MIC is 16 µg/mL (≈ 32.1 µM) in series [9], 0.125 µg/mL (≈ 0.251 µM) in [15], 11.3 µg/mL (≈ 22.7 µM) in [17] and at most 0.0625 µg/mL in series [18].
With `COc1ccc2ncc(F)c([C@@H](O)CC[C@@H]3CCN(C4CC(c5cccc(F)c5F)C4)C[C@@H]3C(=O)O)c2c1` (stereo partly drawn), the IC50 stood at 7.5 µM in [1], 25 µM in series [16] and 0.78 µM in series [2]. The minimum inhibitory concentration (MIC) is 4 µg/mL (≈ 7.57 µM) in series [9], at most 0.0625 µg/mL in series [15], 8 µg/mL (≈ 15.1 µM) in series [17] and at most 0.0625 µg/mL in series [18].
For `COc1ccc2ncc(F)c([C@@H](O)CC[C@@H]3CCN(C4CC(c5ncccc5F)C4)C[C@@H]3C(=O)O)c2c1` (stereo partly drawn), the IC50 in series [1] amounted to 30 µM; in series [16] it was 10.7 µM; in series [2], 6.25 µM. For the same molecule, the MIC90 turned out to be 1 µg/mL (≈ 1.95 µM) in series [7] and 2 µg/mL (≈ 3.91 µM) in series [13]. In addition, the minimal inhibitory concentration (MIC) in [9] came out at 32 µg/mL (≈ 62.6 µM); in series [15] it was 0.5 µg/mL (≈ 0.977 µM); in series [17], 32 µg/mL (≈ 62.6 µM); in series [18], 0.125 µg/mL (≈ 0.244 µM).
On to `COc1ccc2ncc(F)c([C@@H](O)CC[C@@H]3CCN(C4CC(c5cccc(F)c5)C4)C[C@@H]3C(=O)O)c2c1` (stereo partly drawn), for which the figures for the IC50 in series [1] and in series [2] were 19 µM and 0.78 µM, respectively. In addition, the results for the MIC90 in [7] and in series [13] were 0.25 µg/mL (≈ 0.49 µM) and 0.5 µg/mL (≈ 0.979 µM), respectively. In addition, the MIC in series [9] is 16 µg/mL (≈ 31.3 µM); in series [15], 0.25 µg/mL (≈ 0.49 µM); in series [17] it was 16 µg/mL (≈ 31.3 µM); in [18], at most 0.0625 µg/mL.
Consider `COc1ccc2ncc(F)c(C[C@H](O)[C@@H]3CC[C@@H](NCc4cc5c(nn4)OCCS5)CO3)c2n1`, for which the Ratio in [3] is listed as 43.
For `COc1ccc2ncc(F)c([C@@H](O)CC[C@@H]3CCN(C4CC(c5cc(F)cc(F)c5)C4)C[C@@H]3C(=O)O)c2c1` (stereo partly drawn), the figures for the concentration for half-maximal inhibition (IC50) in series [1] and in series [2] were 6.25 µM and 1.2 µM, respectively. Further, the MIC90 stood at 0.25 µg/mL (≈ 0.473 µM) in [7] and 1 µg/mL (≈ 1.89 µM) in series [13]. Besides, the minimum inhibitory concentration (MIC) amounted to 0.35 µg/mL (≈ 0.662 µM) in series [15], 5.7 µg/mL (≈ 10.8 µM) in [17] and 0.125 µg/mL (≈ 0.236 µM) in series [18].
As to `COc1ccc2ncc(F)c([C@@H](O)CC[C@@H]3CCN(C4CC(c5cncc(F)c5)C4)C[C@@H]3C(=O)O)c2c1` (stereo partly drawn), the IC50 in series [1] is above 120 µM; in [2] it was 4.7 µM. Moreover, the values for the minimum inhibitory concentration (MIC) in series [15], in series [17] and in [18] were 32 µg/mL (≈ 62.6 µM), above 64 µg/mL and 2 µg/mL (≈ 3.91 µM), respectively.
Consider `COc1ccc2ncc(F)c([C@@H](O)CC[C@@H]3CCN(C4CC(c5ccno5)C4)C[C@@H]3C(=O)O)c2c1` (stereo partly drawn), for which the concentration for half-maximal inhibition (IC50) in series [1] was 35.1 µM; in [16] it was above 300 µM; in series [2] it was 2.68 µM. Also, the values for the minimum inhibitory concentration (MIC) in series [15], in [17] and in series [18] were 4 µg/mL (≈ 8.27 µM), above 64 µg/mL and 0.5 µg/mL (≈ 1.03 µM), respectively.
Take `COc1ccc2ncc(F)c([C@@H](O)CC[C@@H]3CCN(C4CC(c5ccc(F)s5)C4)C[C@@H]3C(=O)O)c2c1` (stereo partly drawn): the IC50 in series [1] was 19 µM; in series [2], 0.78 µM. Besides, the MIC90 stood at 0.125 µg/mL (≈ 0.242 µM) in [7] and 0.5 µg/mL (≈ 0.968 µM) in series [13]. Also, the minimum inhibitory concentration (MIC) in [9] was 16 µg/mL (≈ 31 µM); in [15], at most 0.0625 µg/mL; in series [17], 16 µg/mL (≈ 31 µM); in series [18], at most 0.0625 µg/mL.
Regarding `CN[C@H](CC(C)C)C(=O)N[C@H]1C(=O)N[C@@H](CC(N)=O)C(=O)N[C@H]2C(=O)N[C@H]3C(=O)N[C@H](C(=O)N[C@H](C(=O)O)c4cc(O)cc(O)c4-c4cc3ccc4O)[C@H](O)c3ccc(c(Cl)c3)Oc3cc2cc(c3O[C@@H]2O[C@H](CO)[C@@H](O)[C@H](O)[C@H]2O[C@H]2C[C@](C)(N)[C@H](O)[C@H](C)O2)Oc2ccc(cc2Cl)[C@H]1O` [VANCOMYCIN], the Activity in series [4] worked out at 29 mg/kg/day.

Source of the values: ChEMBL document CHEMBL4033742, “Novel 3-fluoro-6-methoxyquinoline derivatives as inhibitors of bacterial DNA gyrase and topoisomerase IV” (Bioorg Med Chem Lett, 2017).
